# Key:
# 3LL mouse lung carcinoma = test: In vivo tumor thrombosis, 3LL; parameters: species or system C57BL/6 mice; conditions: large (>800 mm^3) 3LL tumors
# Source text: (§1) Tumor test systems were of four types: i) 3LL mouse lung carcinoma growing subcutaneously in C57BL/6 mice; ii) C1300 mouse neuroblastoma growing subcutaneously in BALB/c nu/nu mice; iii) HT29 human colorectal carcinoma growing subcutaneously in BALB/c nu/nu mice; and iv) C1300 Muγ mouse neuroblastoma growing subcutaneously in BALB/c nu/nu mice. The C1300 Muγ tumor is an interferon-γ secreting transfectant derived from the C 1300 tumor (Watanabe et al., 1989).
# (§2) To establish tumors, 10^6 to 1.5×10^7 tumor cells were injected subcutaneously into the right anterior flank of the mice. When tumors had grown to various sizes, mice were randomly assigned to different study groups. […] Fab′, or bispecific antibody. Other mice received equivalent quantities IgG, Fab′ or bispecific antibody alone. The injections were performed slowly into one of the tail veins over approximately 45 seconds, usually followed by 200 μl of saline.
# (§3) Twenty-four hours after being injected with tTF or immunoglobulin-tTF conjugates, the mice were anesthetized with metophane and were exsanguinated by perfusion with heparinized saline. Tumors and normal tissues were excised and immediately fixed in 3% (v/v) formalin. Paraffin sections were cut and stained with hematoxylin and eosin. Blood vessels having open lumens containing erythrocytes and blood vessels containing thrombi were counted. […]
# [1] = test system: C1300 mouse neuroblastoma; test: In vivo tumor thrombosis, C1300; parameters: species or system BALB/c nu/nu mice; conditions: large C1300 tumors (>1000 mm^3), 24 hours after injection
# Source text: as §1, §2, §3
# [2] = test system: 2F2B mouse endothelial cells; test: Binding of tTF to endothelial cells (FACS, cell bound coagulation assay); format: cell-based
# Experimental: Cells were washed and coagulation factor mix (as described above) was added. S2765 substrate was added and Factor Xa generation was measured as described above.
# Fluorescent cells were detected on a flow cytometer (Becton Dickinson, San Jose, Calif.).
# [3] = test system: citrated mouse or human plasma; test: In vitro coagulation assay on A20 cells; format: cell-based
# factor X = test: Cell free two-stage coagulation assay; format: biochemical; conditions: Factor Xa generation, absorption at 405 nm
# Experimental: In vitro coagulation activity was tested in a cell free two-stage coagulation assay. Negatively charged phospholipids at a final concentration of 50 μM (phosphatidylserine and phosphatidylcholine from Sigma, Taufkirchen, Germany) in calcium buffer (50 mM Tris pH=8.1, 150 mM NaCl, 2 mg/ml BSA, 5 mM Ca^++) were mixed with Factor VIIa (Sigma, Taufkirchen, Germany) at 10 nM and with samples or controls and incubated for five min at 37° C. Factor X was added to a final concentration of 30 nM and samples were incubated for 5 min at room temperature. Finally, the chromogenic substrate S2765 (Haemochrom, Essen, Germany) was added in a 100 mM EDTA solution. Factor Xa generation as a measure of Tissue Factor activity was determined by the increase in the absorption at 405 nm.
# Negatively charged phospholipids at a final concentration of 50 μM (phosphatidylserine and phosphatidylcholine from Sigma, St. Louis, Mo.) in calcium buffer (50 mM Tris pH=8.1, 150 mM NaCl, 2 mg/ml BSA, 5 mM Ca^++) were mixed with Factor VIIa (Sigma. St. Louis, Mo.) at 10 nM and with samples or controls and incubated for five minutes at 37° C. Factor X (Sigma, St. Louis, Mo.) was added to a final concentration of 30 nM and samples were incubated for 5 minutes at room temperature. […] Factor Xa generation as a measure of tissue factor activity was determined by the increase in the absorption at 405 nm.
# [4] = test system: L540 human Hodgkin's tumors; test: Anti-VCAM-1•tTF coaguligand, L540; format: in vivo, SCID mice
# Experimental: Mice bearing subcutaneous L540 tumors were injected intravenously with anti-VCAM-1 antibody and, two hours later, the mice were exsanguinated. The tumor and normal organs were removed and frozen sections were prepared and examined immunohistochemically to determine the location of the antibody. […] No localization of anti-VCAM-1 antibody was found in testis or any normal organ except heart and lung.
# Before coaguligand injection, tumors were viable, having a uniform morphology lacking regions of necrosis. […] Within four hours of coaguligand injection, 40-70% of blood vessels were thrombosed, despite the initial staining of only 20-30% of tumor blood vessels. The thrombosed vessels contained occlusive platelet aggregates, packed erythrocytes and fibrin. In several regions, the blood vessels had ruptured, spilling erythrocytes into the tumor interstitium.
# The drug was administered i.v. 3 times at intervals of 4 days.
# [5] = test system: C1300 Muγ mouse neuroblastoma; test: In vivo tumor thrombosis and anti-tumor effects, C1300 (Muγ); parameters: species or system BALB/c nu/nu mice
# TNFα = TNFα serum levels in treated animals; format: in vivo, mice; conditions: tTF containing no endotoxin (n=6), any time point
# Experimental: Mice were closely observed after treatment for clinical signs of toxicity and clinical status was documented at defined time points (5 minutes, 10 minutes, 15 minutes, 30 minutes, 1 hour, 2 hours, 24 hours, 48 hours, 72 hours). Blood samples were taken from the tail vein at 1 hour, 2 hours and 24 hours to measure TNFα blood levels. Three days after treatment, the mice were anesthetized, blood samples were taken from the vena cava for coagulation tests, and an autopsy was performed to document any changes in gross pathology. Tumors, lymph node metastases and the major normal organs (heart, lung, brain, liver, kidney, colon, spleen, pancreas) were harvested and prepared for histological analysis.
# TNFα levels in serum were determined using the Quantikine-M kit (R&D Systems, Minneapolis, Minn.) according to the manufacturer's instructions.
# F9 sarcoma = test: Sarcoma mouse model, tumor necrosis; format: in vivo, balb/c nude mice; conditions: endotoxin-free tTF, 4 μg
# Experimental: 1×10^7 F9 sarcoma cells were injected subcutaneously into the right flank of balb/c nude mice. Subcutanous tumors were measured with a caliper in three perpendicular directions a, b, and c, and volumes calculated according to the formula V=π/6×a×b×c. Treatment was initiated when subcutaneous tumors reached a size of 150 to 300 μl.
# Reagents were administered into the lateral tail vein.
# Mice were closely observed after treatment for clinical signs of toxicity and clinical status was documented at defined time points. Three days after treatment, mice were sacrificed and tumors were harvested. Paraffin embedded tissues were stained with hematoxilin and eosin (H&E). Tissue sections were analyzed on a light microscope by two independent investigators and histological findings were documented. Tumor sections with necrotic areas were scanned with a GS-700 imaging densitometer (Biorad, Hercules, Calif.) and areas of necrosis were calculated as % of total section area.
substance,measurement,setting,value
tTF: extracellular domain of the mature Tissue Factor protein (amino acid 1-219),"tumor vessels thrombosed, average",3LL mouse lung carcinoma,62%
same,thrombosis of tumor vessels,[1],virtually all vessels were thrombosed
same,binding to endothelial cells expressing tissue factor,[2],no binding of tTF to endothelial cells
same,plasma coagulation time,"[3]; 10^−10 M tTF219, absence of Factor VIIa",60 s
same,plasma coagulation time,"[3]; 10^−10 M tTF219, presence of 13.5 nM Factor VIIa",20 s
same,coagulation time,"[3]; 20,000 molecules per cell",140 s
same,coagulation time,"[3]; 300,000 molecules of tTF per cell",40 s
same,concentration at which plasma coagulated in 50 seconds,[3]; localized on A20 cells via B21-2/10H10,3 nM
same,increase in coagulation-inducing potency,[3]; presence of 0.1 nM Factor VIIa,2-5 fold
same,time until fibrin strands visible after addition of plasma,"[3]; tTF bound to A20 cells by B21-2/10H10, mouse plasma",36 s
same,coagulation activities before and after endotoxin removal,factor X,the same
same,effect on tumor growth,"[4]; 0.3-0.4 cm^3 tumors, i.v. 3 times at intervals of 4 days",did not affect tumor growth
same,control reagents that caused thrombosis of tumor vessels,[4]; equivalent quantities,None
same,thrombosis of tumor vessels,[5]; 24 hours after injection,practically all vessels in all regions of the tumor were thrombosed
same,effect on vessels in small tumors,[5]; small (<500 mm^3) C1300 and C1300 Muγ,largely unaffected
same,tumor growth,[5]; tTF alone or mixed with control bispecific antibodies vs antibodies or saline alone,grew significantly more slowly
same,TNFα serum level,TNFα,could not be detected
same,average tumor tissue necrosis,F9 sarcoma,45%

# — patent US20030129193A1 (priority 2001, published 2003)
